# According to article PMC6446049 (Alzheimer's & Dementia : Translational Research & Clinical …, 2019):
# How the values were obtained:
# [1] = system: healthy elderly subjects (scopolamine challenge); experiment: N-back test in scopolamine challenge; assay type: in vivo, human; settings: for N-back, 0-back accuracy / N-back, 0-back reaction time / N-back, 1-back accuracy / N-back, 2-back accuracy / N-back, 2-back reaction time: vs placebo (95% CI), scopolamine 0.3 mg i.v.
# [2] = system: healthy elderly subjects (scopolamine challenge); experiment: Adaptive tracking; assay type: in vivo, human; settings: for Adaptive tracking: vs placebo (95% CI), scopolamine 0.3 mg i.v.
# [3] = system: healthy elderly subjects (scopolamine challenge); experiment: Safety assessment: adverse events, vital signs, ECG, laboratory; assay type: in vivo, human; settings: scopolamine 0.3 mg i.v.
# [4] = system: healthy elderly subjects (scopolamine challenge); experiment: Saccadic eye movements in scopolamine challenge; assay type: in vivo, human; settings: for Saccadic inaccuracy / Saccadic reaction time: vs placebo (95% CI), scopolamine 0.3 mg i.v.
# [5] = system: patients with mild-to-moderate Alzheimer's disease; settings: cited from earlier work
# [6] = system: healthy volunteers; settings: single oral doses; cited from earlier work
# [7] = Plasma pharmacokinetics; settings: noncompartmental analysis
# [8] = system: healthy elderly subjects (scopolamine challenge); experiment: Pharmaco-electroencephalography in scopolamine challenge; assay type: in vivo, human; settings: scopolamine alone 0.3 mg i.v.
# [9] = system: healthy subjects; settings: scopolamine alone, previous study; cited from earlier work
# [10] = system: healthy elderly subjects (scopolamine challenge); experiment: Body sway meter; assay type: in vivo, human; settings: scopolamine alone 0.3 mg i.v.
# [11] = system: healthy elderly subjects (scopolamine challenge); experiment: Simple reaction time task in scopolamine challenge; assay type: in vivo, human; settings: scopolamine alone 0.3 mg i.v.
# [12] = system: healthy volunteers; settings: 0.5 mg intravenously; healthy young volunteers; cited from earlier work
# [13] = DPZ 2.5 mg + EVP-6124 placebo, N 11
# [14] = DPZ 5.0 mg + EVP-6124 placebo, N 10
# [15] = DPZ placebo + EVP-6124 0.3 mg, N 12
# [16] = DPZ placebo + EVP-6124 1 mg, N 11
# [17] = DPZ placebo + EVP-6124 2 mg, N 12
# [18] = DPZ placebo + EVP-6124 4 mg, N 12
smiles,measurement,setting,value
"COc1cc2c(cc1OC)C(=O)C(CC1CCN(Cc3ccccc3)CC1)C2 (centres unmarked) [DPZ, donepezil, reference compound]","N-back, 0-back accuracy",[1]; DPZ 2.5 mg + EVP-6124 placebo,"0.03 (−0.05, 0.11) P = .4512%"
same,"N-back, 0-back reaction time",[1]; DPZ 2.5 mg + EVP-6124 placebo,"−24 (−48, 1) P = .0615 ms"
same,"N-back, 1-back accuracy",[1]; DPZ 2.5 mg + EVP-6124 placebo,"−0.00 (−0.12, 0.11) P = .9598%"
same,"N-back, 2-back accuracy",[1]; DPZ 2.5 mg + EVP-6124 placebo,"0.04 (−0.08, 0.17) P = .5034%"
same,"N-back, 2-back reaction time",[1]; DPZ 2.5 mg + EVP-6124 placebo,"−27 (−70, 16) P = .2115 ms"
same,"N-back, 0-back accuracy",[1]; DPZ 5 mg + EVP-placebo,"0.04 (−0.02, 0.10) P = .1614%"
same,"N-back, 0-back reaction time",[1]; DPZ 5 mg + EVP-placebo,"−18 (−36, −1) P = .0386 ms"
same,"N-back, 1-back accuracy",[1]; DPZ 5 mg + EVP-placebo,"0.03 (−0.05, 0.11) P = .4286%"
same,"N-back, 2-back accuracy",[1]; DPZ 5 mg + EVP-placebo,"0.02 (−0.08, 0.11) P = .7469%"
same,"N-back, 2-back reaction time",[1]; DPZ 5 mg + EVP-placebo,"35 (−1, 70) P = .0541 ms"
same,Adaptive tracking,[2]; DPZ 2.5 mg + EVP-6124 placebo,"1.49 (0.20, 2.77) P = .0247%"
same,Adaptive tracking,[2]; DPZ 5 mg + EVP-placebo,"0.72 (−0.76, 2.20) P = .3297%"
same,"Headache, treatment-related adverse event, subjects n (%)",[3]; [13],1 (9.1%)
same,"Somnolence, treatment-related adverse event, subjects n (%)",[3]; [13],7 (63.6%)
same,"Disturbance in attention, treatment-related adverse event, subjects n (%)",[3]; [14],1 (10.0%)
same,"Dizziness, treatment-related adverse event, subjects n (%)",[3]; [14],6 (60.0%)
same,"Dry mouth, treatment-related adverse event, subjects n (%)",[3]; [14],6 (60.0%)
same,"Headache, treatment-related adverse event, subjects n (%)",[3]; [14],1 (10.0%)
same,"Somnolence, treatment-related adverse event, subjects n (%)",[3]; [14],6 (60.0%)
same,Saccadic inaccuracy,[4]; DPZ 2.5 mg + EVP-6124 placebo,"−1.4 (−2.7, −0.1) P = .0311%"
same,Saccadic reaction time,[4]; DPZ 2.5 mg + EVP-6124 placebo,"−4 (−20, 11) P = .5539 ms"
same,Saccadic inaccuracy,[4]; DPZ 5 mg + EVP-placebo,"0.0 (−0.9, 1.0) P = .9433%"
same,Saccadic reaction time,[4]; DPZ 5 mg + EVP-placebo,"−11 (−20, −2) P = .0190 ms"
O=C(N[C@H]1CN2CCC1CC2)c1cc2cccc(Cl)c2s1 [EVP-6124],reason why phase III trials were halted in 2015,[5],gastrointestinal adverse events
same,dose at which effects on the Digit Symbol Substitution Test were most prevalent,[6],20 mg
same,"N-back, 0-back accuracy",[1]; DPZ placebo + EVP-6124 0.3 mg,"0.02 (−0.04, 0.08) P = .5073%"
same,"N-back, 0-back reaction time",[1]; DPZ placebo + EVP-6124 0.3 mg,"8 (−12, 29) P = .4004 ms"
same,"N-back, 1-back accuracy",[1]; DPZ placebo + EVP-6124 0.3 mg,"0.02 (−0.05, 0.10) P = .5558%"
same,"N-back, 2-back accuracy",[1]; DPZ placebo + EVP-6124 0.3 mg,"−0.02 (−0.11, 0.07) P = .6878%"
same,"N-back, 2-back reaction time",[1]; DPZ placebo + EVP-6124 0.3 mg,"−5 (−36, 25) P = .7210 ms"
same,"N-back, 0-back accuracy",[1]; DPZ placebo + EVP-6124 1 mg,"0.04 (−0.03, 0.10) P = .2318%"
same,"N-back, 0-back reaction time",[1]; DPZ placebo + EVP-6124 1 mg,"−17 (−37, 4) P = .1085 ms"
same,"N-back, 1-back accuracy",[1]; DPZ placebo + EVP-6124 1 mg,"0.04 (−0.04, 0.12) P = .3062%"
same,"N-back, 2-back accuracy",[1]; DPZ placebo + EVP-6124 1 mg,"0.01 (−0.08, 0.10) P = .8796%"
same,"N-back, 2-back reaction time",[1]; DPZ placebo + EVP-6124 1 mg,"−3 (−33, 28) P = .8693 ms"
same,"N-back, 0-back accuracy",[1]; DPZ placebo + EVP-6124 2 mg,"0.05 (−0.01, 0.11) P = .0818%"
same,"N-back, 0-back reaction time",[1]; DPZ placebo + EVP-6124 2 mg,"−5 (−25, 15) P = .6209 ms"
same,"N-back, 2-back accuracy",[1]; DPZ placebo + EVP-6124 2 mg,"0.03 (−0.06, 0.13) P = .4557%"
same,"N-back, 2-back reaction time",[1]; DPZ placebo + EVP-6124 2 mg,"1 (−29, 31) P = .9305 ms"
same,"N-back, 0-back reaction time",[1]; DPZ placebo + EVP-6124 4 mg,"−16 (−36, 4) P = .1151 ms"
same,"N-back, 1-back accuracy",[1]; DPZ placebo + EVP-6124 4 mg,"0.05 (−0.03, 0.12) P = .2385%"
same,"N-back, 2-back accuracy",[1]; DPZ placebo + EVP-6124 4 mg,"−0.02 (−0.11, 0.07) P = .7181%"
same,"N-back, 2-back reaction time",[1]; DPZ placebo + EVP-6124 4 mg,"−8 (−39, 22) P = .5733 ms"
same,Adaptive tracking,[2]; DPZ placebo + EVP-6124 0.3 mg,"−1.23 (−2.80, 0.34) P = .1200%"
same,Adaptive tracking,[2]; DPZ placebo + EVP-6124 1 mg,"0.03 (−1.56, 1.63) P = .9671%"
same,Adaptive tracking,[2]; DPZ placebo + EVP-6124 2 mg,"−0.83 (−2.33, 0.67) P = .2691%"
same,Adaptive tracking,[2]; DPZ placebo + EVP-6124 4 mg,"−0.26 (−1.76, 1.24) P = .7281%"
same,"Disturbance in attention, treatment-related adverse event, subjects n (%)",[3]; [15],2 (16.7%)
same,"Dizziness, treatment-related adverse event, subjects n (%)",[3]; [15],6 (50.0%)
same,"Dry mouth, treatment-related adverse event, subjects n (%)",[3]; [15],8 (66.7%)
same,"Gait disturbance, treatment-related adverse event, subjects n (%)",[3]; [15],1 (8.3%)
same,"Headache, treatment-related adverse event, subjects n (%)",[3]; [15],1 (8.3%)
same,"Somnolence, treatment-related adverse event, subjects n (%)",[3]; [15],6 (50.0%)
same,"Disturbance in attention, treatment-related adverse event, subjects n (%)",[3]; [16],2 (18.2%)
same,"Dizziness, treatment-related adverse event, subjects n (%)",[3]; [16],3 (27.3%)
same,"Gait disturbance, treatment-related adverse event, subjects n (%)",[3]; [16],1 (9.1%)
same,"Headache, treatment-related adverse event, subjects n (%)",[3]; [16],3 (27.3%)
same,"Somnolence, treatment-related adverse event, subjects n (%)",[3]; [16],5 (45.5%)
same,"Disturbance in attention, treatment-related adverse event, subjects n (%)",[3]; [17],1 (8.3%)
same,"Dizziness, treatment-related adverse event, subjects n (%)",[3]; [17],4 (33.3%)
same,"Dry mouth, treatment-related adverse event, subjects n (%)",[3]; [17],10 (83.3%)
same,"Gait disturbance, treatment-related adverse event, subjects n (%)",[3]; [17],1 (8.3%)
same,"Somnolence, treatment-related adverse event, subjects n (%)",[3]; [17],8 (66.7%)
same,"Disturbance in attention, treatment-related adverse event, subjects n (%)",[3]; [18],2 (16.7%)
same,"Dizziness, treatment-related adverse event, subjects n (%)",[3]; [18],5 (41.7%)
same,"Dry mouth, treatment-related adverse event, subjects n (%)",[3]; [18],10 (83.3%)
same,"Gait disturbance, treatment-related adverse event, subjects n (%)",[3]; [18],3 (25.0%)
same,"Headache, treatment-related adverse event, subjects n (%)",[3]; [18],1 (8.3%)
same,"Somnolence, treatment-related adverse event, subjects n (%)",[3]; [18],7 (58.3%)
same,EVP-6124 pharmacokinetic parameters with or without donepezil,[7],similar
same,Saccadic inaccuracy,[4]; DPZ placebo + EVP-6124 0.3 mg,"0.6 (−0.2, 1.4) P = .1224%"
same,Saccadic reaction time,[4]; DPZ placebo + EVP-6124 0.3 mg,"−4 (−13, 5) P = .4018 ms"
same,Saccadic inaccuracy,[4]; DPZ placebo + EVP-6124 1 mg,"0.0 (−0.8, 0.8) P = .9525%"
same,Saccadic reaction time,[4]; DPZ placebo + EVP-6124 1 mg,"−2 (−12, 7) P = .5871 ms"
same,Saccadic inaccuracy,[4]; DPZ placebo + EVP-6124 2 mg,"−0.1 (−0.9, 0.6) P = .7196%"
same,Saccadic reaction time,[4]; DPZ placebo + EVP-6124 2 mg,"−3 (−12, 6) P = .4605 ms"
same,Saccadic inaccuracy,[4]; DPZ placebo + EVP-6124 4 mg,"0.3 (−0.5, 1.1) P = .4213%"
same,Saccadic reaction time,[4]; DPZ placebo + EVP-6124 4 mg,"3 (−6, 11) P = .5707 ms"
CN1[C@@H]2C[C@@H](OC(=O)[C@H](CO)c3ccccc3)C[C@H]1[C@@H]1O[C@@H]12 [scopolamine],EEG alpha frequency,[8],decrease
same,EEG beta frequency,[8],did not affect
same,EEG delta frequency,[8],increase
same,EEG theta frequency,[8],did not affect
same,reduction of adaptive tracking scores,[9],42%
same,performance on N-back,[1]; scopolamine alone 0.3 mg i.v.,worsened performance
same,performance on adaptive tracking,[2]; scopolamine alone 0.3 mg i.v.,worsened performance
same,performance on body sway,[10],worsened performance
same,performance on SRT,[11],worsened performance
same,cognitive effect of scopolamine,[12],significant cognitive deficits
same,performance on saccadic eye movements,[4]; scopolamine alone 0.3 mg i.v.,worsened performance
